Assay results from PubChem BioAssay AID2060901 (Molecular Pharmacology Branch, DTP, NCI, 2025).

Test system: 422866-222-R5-J1-PDC complex spheroids viability
Assay: Anticancer human tumor 422866-222-R5-J1-PDC patient-derived pancreatic adenocarcinoma cell line growth inhibition [RAS]
Conditions: for IC50: curve of first compound; for viability, T/C: stronger effect = lower value
Excerpt: RAS pathway inhibitors in Combinations in Complex Spheroids
A high-throughput screen of multi-cell type tumor spheroids was designed to identify active combinations of RAS pathway inhibitors and targeted small molecules. Complex spheroids include a stromal component modeled by human endothelial cells (HUVEC) and fibroblasts modeled by human mesenchymal stem cells (MSCs). The concentration ranges selected for each drug and investigational agent were based upon clinically achievable concentrations if the clinical Cmax of the agent was known.
Compounds. The drugs and investigational agents: abemaciclib (NSC768073), cobimetinib (NSC768068), divarasib (GDC6063, NSC841802), docetaxel (NSC628503), GDC-1971 (RLY-1971, NSC841576), gemcitabine (NSC613327), inavolisib (NSC800729), ipatasertib (NSC767898), KB-0742 (NSC834161), MRTX-1133 (NSC836407), osimertinib (NSC779217), RMC-4630 (NSC839698), RMC-6236 (NSC851965), RMC-6291 (NSC852671), Ro-3306 (NSC812927), sapanisertib (NSC764658), SN-38 (NSC673596), staurosporine (NSC755774), SY5609 (NSC837396), and tovorafenib (DAY101, NSC766906), were obtained from the National Cancer Institute (NCI) Developmental Therapeutics Program Chemical Repository. The FDA-approved anticancer drug set is available from the NCI Developmental Therapeutics Program. […] The stock solutions were prepared in dimethyl sulfoxide (DMSO, Sigma-Aldrich, St. Louis, MO, cat. D2650) at 800-fold the tested concentration and stored at -70 degrees C prior to their use. All drugs and investigational agents were tested over a range starting from a high concentration at or near the clinical Cmax and decreasing in half-log increments. If the clinical Cmax for an agent had not been determined, the highest concentration tested was 10 microM.
Cell Culture. All cells were maintained in an incubator at 37 degrees C and 5% CO2 with 95% humidity. The PDC lines were cultured according to standard operating procedures established by the NCI PDMR. All PDCs were thawed and cultured in Matrigel-coated flasks prepared with a working solution of 1X Ham's F-12 nutrient mix, without supplementation (Invitrogen, Waltham, MA, cat. 11765054), 100 U/mL penicillin-streptomycin (Invitrogen, cat. 15140122), and 2.5% Matrigel (Corning Inc., Corning, NY, cat. 354248) for the first three passages. The 362531-283-R-J2-PDC and 782815-120-R-J1-PDC lines were cultured in 6C/Colon 1B media, which includes advanced DMEM/F-12 (Thermo Fisher Scientific, cat. 12634028), 10 mM HEPES (Thermo Fisher Scientific, cat. 15630080), 1X GlutaMAX supplement (Thermo Fisher Scientific, cat. 35050061), 0.1 mg/mL primocin (InvivoGen, San Diego, CA, cat. ant-pm-2), 10% defined fetal bovine serum, heat inactivated (HyClone Laboratories Inc., Logan, UT, cat. SH30070.03HI), 50% L-WRN conditioned media (ATCC, cat. CRL-3276), 1.25 mM N-Acetyl-L-cysteine (Sigma-Aldrich, cat. A9165), 10 mM nicotinamide (Sigma-Aldrich, cat. N0636), 1X B-27 supplement (Thermo Fisher Scientific, cat. 17504044), 1X N-2 supplement (Thermo Fisher Scientific, cat. 17502048), 50 ng/mL human EGF (Thermo Fisher Scientific, cat. PHG0311), and 10 microM Y-27632 dihydrochloride (Tocris Bioscience, cat. 1254). The K12877-001-R-J1-PDC line was cultured in 6I media, which includes all 6C/Colon 1B media plus 10 ng/mL human FGF-10 (PeproTech, cat. 100-26), 1 ng/mL human FGF-2 (PeproTech, cat. 100-18B), 1 µM prostaglandin E2 (Tocris Bioscience, cat. 2296), […] hydrocortisone (Sigma-Aldrich, cat. H4001), and […] bovine insulin (Sigma-Aldrich, cat. I6634). The K86415-001-R-J1-PDC line was cultured in 6D media, which includes all 6C/Colon 1B media components minus the L-WRN conditioned media. The 485176-168-R4-J1-PDC was cultured in PANC media, which includes all 6C/Colon 1B media plus 100 ng/mL human FGF-10 (PeproTech, cat. 100-26), 500 nM SB-431542 (Selleckchem, cat. S1067), and 10 nM gastrin (Tocris Bioscience, cat. 3006). […]

[1] = second compound 0.0316 µM, first compound 0.0316 µM
[2] = second compound 0.0316 µM, first compound 0.1 µM
[3] = second compound 0.0316 µM, first compound 0.316 µM
[4] = second compound 0.0316 µM, first compound 1 µM
[5] = second compound 0.1 µM, first compound 0.0316 µM
[6] = second compound 0.1 µM, first compound 0.1 µM
[7] = second compound 0.1 µM, first compound 0.316 µM
[8] = second compound 0.1 µM, first compound 1 µM
[9] = second compound 0.316 µM, first compound 0.0316 µM
[10] = second compound 0.316 µM, first compound 0.1 µM
[11] = second compound 0.316 µM, first compound 0.316 µM
[12] = second compound 0.316 µM, first compound 1 µM
[13] = second compound 1 µM, first compound 0.0316 µM
[14] = second compound 1 µM, first compound 0.1 µM
[15] = second compound 1 µM, first compound 0.316 µM
[16] = second compound 1 µM, first compound 1 µM
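Throughout, for viability, T/C: 100% = DMSO vehicle control viability.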

`CCN1CCN(Cc2ccc(Nc3ncc(F)c(-c4cc(F)c5nc(C)n(C(C)C)c5c4)n3)nc2)CC1` + C#Cc1c(F)ccc2cc(O)cc(-c3ncc4c(N5CC6CCC(C5)N6)nc(OCC56CCCN5CC(F)C6)nc4c3F)c12 gave an IC50 (second compound 0.0316 µM) greater than 1000 nM, an IC50 (second compound 0.1 µM) greater than 1000 nM and an IC50 (second compound 0.316 µM) greater than 1000 nM. It also gave an IC50 (second compound 1 µM) of less than 3.16 nM, an IC50 (second compound 3.16 µM) of less than 3.16 nM and an IC50 (second compound 10 µM) of less than 3.16 nM. For the same compound, the viability, T/C (second compound 0.0316 µM, first compound 0.00316 µM) was 79%, the viability, T/C (second compound 0.0316 µM, first compound 0.01 µM) was 103% and the viability, T/C [1] was 88%. It also gave a viability, T/C [2] of 59.5%, a viability, T/C [3] of 69.3% and a viability, T/C [4] of 69.7%. It also gave a viability, T/C (second compound 0.1 µM, first compound 0.00316 µM) of 87.2%, a viability, T/C (second compound 0.1 µM, first compound 0.01 µM) of 86.3% and a viability, T/C [5] of 65.3%. The viability, T/C [6] was 62.4%, the viability, T/C [7] was 59% and the viability, T/C [8] was 77.4%. It also gave a viability, T/C (second compound 0.316 µM, first compound 0.00316 µM) of 73.3%, a viability, T/C (second compound 0.316 µM, first compound 0.01 µM) of 66.4% and a viability, T/C [9] of 63.3%. It also gave a viability, T/C [10] of 55%, a viability, T/C [11] of 48.5% and a viability, T/C [12] of 73.1%. It also gave a viability, T/C (second compound 1 µM, first compound 0.00316 µM) of 48.3%, a viability, T/C (second compound 1 µM, first compound 0.01 µM) of 51.5% and a viability, T/C [13] of 43%. For the same compound, the viability, T/C [14] was 33.5%, the viability, T/C [15] was 35.4% and the viability, T/C [16] was 55.8%. It also gave a viability, T/C (second compound 3.16 µM, first compound 0.00316 µM) of 28.2%, a viability, T/C (second compound 3.16 µM, first compound 0.01 µM) of 32% and a viability, T/C (second compound 3.16 µM, first compound 0.0316 µM) of 27.7%. For the same compound, the viability, T/C (second compound 3.16 µM, first compound 0.1 µM) was 28%, the viability, T/C (second compound 3.16 µM, first compound 0.316 µM) was 35.2% and the viability, T/C (second compound 3.16 µM, first compound 1 µM) was 42.1%. For the same compound, the viability, T/C (second compound 10 µM, first compound 0.00316 µM) was 23.2%, the viability, T/C (second compound 10 µM, first compound 0.01 µM) was 22.8% and the viability, T/C (second compound 10 µM, first compound 0.0316 µM) was 21.9%. For the same compound, the viability, T/C (second compound 10 µM, first compound 0.1 µM) was 19.4%, the viability, T/C (second compound 10 µM, first compound 0.316 µM) was 25.7% and the viability, T/C (second compound 10 µM, first compound 1 µM) was 35.2%.
`C[C@@H](NC(=O)c1ncnc(N)c1Cl)c1ncc(C(=O)Nc2cc(C(F)(F)F)c(Cl)cn2)s1` + C=CC(=O)N1CCN(c2nc(OCC3CCCN3C)nc3c(F)c(-c4nc(N)cc(C)c4C(F)(F)F)c(Cl)cc23)C(C)C1 showed an IC50 (second compound 0.00316 µM) of less than 31.6 nM, an IC50 (second compound 0.01 µM) of less than 31.6 nM and an IC50 (second compound 0.0316 µM) of less than 31.6 nM. It also gave an IC50 (second compound 0.1 µM) of less than 31.6 nM, an IC50 (second compound 0.316 µM) of less than 31.6 nM and an IC50 (second compound 1 µM) of less than 31.6 nM. It also gave a viability, T/C (second compound 0.00316 µM, first compound 0.0316 µM) of 31.7%, a viability, T/C (second compound 0.00316 µM, first compound 0.1 µM) of 47.2% and a viability, T/C (second compound 0.00316 µM, first compound 0.316 µM) of 31.7%. It also gave a viability, T/C (second compound 0.00316 µM, first compound 1 µM) of 29%, a viability, T/C (second compound 0.00316 µM, first compound 3.16 µM) of 32% and a viability, T/C (second compound 0.00316 µM, first compound 10 µM) of 30.6%. For the same compound, the viability, T/C (second compound 0.01 µM, first compound 0.0316 µM) was 41.5%, the viability, T/C (second compound 0.01 µM, first compound 0.1 µM) was 32.2% and the viability, T/C (second compound 0.01 µM, first compound 0.316 µM) was 33.3%. It also gave a viability, T/C (second compound 0.01 µM, first compound 1 µM) of 29.2%, a viability, T/C (second compound 0.01 µM, first compound 3.16 µM) of 30% and a viability, T/C (second compound 0.01 µM, first compound 10 µM) of 28.9%. The viability, T/C [1] was 30.8%, the viability, T/C [2] was 30.8% and the viability, T/C [3] was 25.1%. For the same compound, the viability, T/C [4] was 27.4%, the viability, T/C (second compound 0.0316 µM, first compound 3.16 µM) was 29.5% and the viability, T/C (second compound 0.0316 µM, first compound 10 µM) was 26.7%. The viability, T/C [5] was 30.5%, the viability, T/C [6] was 25% and the viability, T/C [7] was 27.9%. The viability, T/C [8] was 30.3%, the viability, T/C (second compound 0.1 µM, first compound 3.16 µM) was 26.7% and the viability, T/C (second compound 0.1 µM, first compound 10 µM) was 30.5%. For the same compound, the viability, T/C [9] was 28%, the viability, T/C [10] was 24.1% and the viability, T/C [11] was 27.6%. For the same compound, the viability, T/C [12] was 23.1%, the viability, T/C (second compound 0.316 µM, first compound 3.16 µM) was 28.6% and the viability, T/C (second compound 0.316 µM, first compound 10 µM) was 31.8%. The viability, T/C [13] was 27.1%, the viability, T/C [14] was 29.4% and the viability, T/C [15] was 27.2%. It also gave a viability, T/C [16] of 30%, a viability, T/C (second compound 1 µM, first compound 3.16 µM) of 32.1% and a viability, T/C (second compound 1 µM, first compound 10 µM) of 29.4%.
